Data: US20250145633A1, “SUBSTITUTED FURANOPYRIMIDINE COMPOUNDS AS PDE1 INHIBITORS” (Dart NeuroScience, LLC, priority 2017, published 2025)

Biological target: human PDE1B enzyme (Homo sapiens (Human), UniProt Q01064)
Assay: IMAP TR-FRET PDE1B enzymatic assay
Type: biochemical
Conditions: negative log of half-maximal molar inhibitory concentration, 200 nM FAM-cAMP, values given as bins; for IC50: read-out: PDE1b (pIC50) (converted)
Method: PDE1B inhibition was determined by an IMAP TR-FRET assay. The IMAP TR-FRET PDE assay was optimized for concentration of enzyme, Calmodulin, cAMP or cGMP substrate, DMSO tolerance, and incubation time.
Into each well of a solid white 1536 well plate (Corning) was dispensed 250 pg full-length recombinant NH-terminal GST tagged human PDE1B enzyme (BPS Bioscience Cat #60011, San Diego, CA) in 2.5 μL IMAP BSA reaction buffer (Molecular Devices, Sunnyvale, CA) containing 10 U/ml Calmodulin and 2.5 mM CaCl2) (Sigma Aldrich.) After a brief centrifugation, 30 nL of compound was added by transfer from 1 mM stock in DMSO using a Kalypsys 1536 Pintool. Plates were incubated for 5 minutes at room temperature before dispensing 1.5 μL of 533 nM 5-carboxy fluorescein (FAM)-labeled cAMP (Molecular Devices, Sunnyvale, CA) for a final concentration of 200 nM. After a brief centrifugation, the plates were incubated for 30 minutes at room temperature. The assay was terminated by adding 5 μL IMAP binding reagent/Tb complex (Molecular Devices, Sunnyvale, CA) to each well.
Plates were incubated for 1 hour at room temperature and were read on a Viewlux multimode plate reader (Perkin Elmer). The instrument was set to excite using the DUG11 filter and measure using 490/10 nm and 520/10 nm filters. Ratios of acceptor and donor were then calculated.
For IC50 calculations, the values of % efficacy versus a series of compound concentrations were then plotted using non-linear regression analysis of sigmoidal dose-response curves generated with the equation Y=[B+(T−B)]/[1+10((Log EC50−X)×Hill Slope)], where Y=percent activity, B=minimum percent efficacy, T=maximum percent efficacy, X=logarithm of compound and Hill Slope=slope factor or Hill coefficient. The IC50 value was determined by the concentration causing a half-maximal percent efficacy.

Row | SMILES | PDE1b (pIC50) | IC50 [nM]
1 | Cc1oc2ncnc(NC3(C)CC3)c2c1C(=O)N1CCC(c2ccnc(F)c2)C1 (centres unmarked) [Example 21, 5-[3-(2-Fluoropyridin-4-yl)pyrrolidine-1-carbonyl]-6-methyl-N-(1-methylcyclopropyl)furo[2,3-d]pyrimidin-4-amine] | >8 | –
2 | Cc1oc2ncnc(NC3(C)CC3)c2c1C(=O)N1CCc2c(nc(C(C)C)[nH]c2=O)C1 [Example 22, 2-Isopropyl-7-(6-methyl-4-((1-methylcyclopropyl)amino)furo[2,3-d]pyrimidine-5-carbonyl)-5,6,7,8-tetrahydropyrido[3,4-d]pyrimidin-4(3H)-one] | – | 10 to 100
3 | CCc1ncnc2c1CCN(C(=O)c1c(C)oc3ncnc(NC4(C)CC4)c13)C2 [Example 23, 5-{4-Ethyl-5H,6H,7H,8H-pyrido[3,4-d]pyrimidine-7-carbonyl}-6-methyl-N-(1-methylcyclopropyl)furo[2,3-d]pyrimidin-4-amine] | – | 10 to 100
4 | Cc1oc2ncnc(NC3(C)CC3)c2c1C(=O)N1CCc2c(C#N)ncnc2C1 [Example 24, 7-(6-Methyl-4-((1-methylcyclopropyl)amino)furo[2,3-d]pyrimidine-5-carbonyl)-5,6,7,8-tetrahydropyrido[3,4-d]pyrimidine-4-carbonitrile] | – | 100 to 1000
5 | CCOc1ncnc2c1CCN(C(=O)c1c(C)oc3ncnc(NC4(C)CC4)c13)C2 [Example 25, 5-{4-Ethoxy-5H,6H,7H,8H-pyrido[3,4-d]pyrimidine-7-carbonyl}-6-methyl-N-(1-methylcyclopropyl)furo[2,3-d]pyrimidin-4-amine] | >8 | –
6 | Cc1oc2ncnc(NC3(C)CC3)c2c1C(=O)N1CCC(c2nccc(NCCF)n2)CC1 [Example 26, (4-(4-((2-Fluoroethyl)amino)pyrimidin-2-yl)piperidin-1-yl)(6-methyl-4-((1-methylcyclopropyl)amino)furo[2,3-d]pyrimidin-5-yl)methanone] | >8 | –
7 | COc1nc(C(C)C)nc2c1CCN(C(=O)c1c(C)oc3ncnc(NC4(C)CC4)c13)C2 [Example 27, 5-[4-Methoxy-2-(propan-2-yl)-5H,6H,7H,8H-pyrido[3,4-d]pyrimidine-7-carbonyl]-6-methyl-N-(1-methylcyclopropyl)furo[2,3-d]pyrimidin-4-amine] | >8 | –
8 | COc1cc(CN(C(=O)c2c(C)oc3ncnc(NC4(C)CC4)c23)C2CC2)ncn1 [Example 28, N-Cyclopropyl-N-[(6-methoxypyrimidin-4-yl)methyl]-6-methyl-4-[(1-methylcyclopropyl)amino]furo[2,3-d]pyrimidine-5-carboxamide] | – | 10 to 100
9 | CCc1nc(C2CC2)n2c1CN(C(=O)c1c(C)oc3ncnc(NC4(C)CC4)c13)CC2 [Example 29, 5-{3-Cyclopropyl-1-ethyl-5H,6H,7H,8H-imidazo[1,5-a]pyrazine-7-carbonyl}-6-methyl-N-(1-methylcyclopropyl)furo[2,3-d]pyrimidin-4-amine] | – | 100 to 1000
10 | Cc1oc2ncnc(NC3(C)CC3)c2c1C(=O)N1C[C@@H]2C(c3ccccn3)[C@@H]2C1 (stereo partly drawn) [Example 30, 6-methyl-N-(1-methylcyclopropyl)-5-[(1R,5S,6S)-6-(pyridin-2-yl)-3-azabicyclo[3.1.0]hexane-3-carbonyl]furo[2,3-d]pyrimidin-4-amine] | – | 10 to 100
11 | Cc1oc2ncnc(NC3(C)CC3)c2c1C(=O)N1CC(c2ccc(F)cn2)C1 [Example 31, 5-[3-(5-Fluoropyridin-2-yl)azetidine-1-carbonyl]-6-methyl-N-(1-methylcyclopropyl)furo[2,3-d]pyrimidin-4-amine] | – | 10 to 100
12 | Cc1oc2ncnc(NC3(C)CC3)c2c1C(=O)N1CC(c2ccc(C#N)cc2)C1 [Example 32, 4-(1-{6-Methyl-4-[(1-methylcyclopropyl)amino]furo[2,3-d]pyrimidine-5-carbonyl}azetidin-3-yl)benzonitrile] | – | 10 to 100
13 | Cc1oc2ncnc(NC3(C)CC3)c2c1C(=O)N1CC(c2nccs2)C1 [Example 33, 6-Methyl-N-(1-methylcyclopropyl)-5-[3-(1,3-thiazol-2-yl)azetidine-1-carbonyl]furo[2,3-d]pyrimidin-4-amine] | – | 10 to 100
14 | Cc1oc2ncnc(NC3(C)CC3)c2c1C(=O)Nc1ccc(-c2ccoc2)nc1 [Example 34, N-[6-(Furan-3-yl)pyridin-3-yl]-6-methyl-4-[(1-methylcyclopropyl)amino]furo[2,3-d]pyrimidine-5-carboxamide] | – | 10 to 100
15 | Cc1oc2ncnc(NC3(C)CC3)c2c1C(=O)N1CCN(c2nccs2)CC1 [Example 35, 6-Methyl-N-(1-methylcyclopropyl)-5-[4-(1,3-thiazol-2-yl)piperazine-1-carbonyl]furo[2,3-d]pyrimidin-4-amine] | – | 10 to 100
16 | Cc1oc2ncnc(NC3(C)CC3)c2c1C(=O)N1Cc2cnc(C(F)(F)F)nc2C1 [Example 36, 6-Methyl-N-(1-methylcyclopropyl)-5-[2-(trifluoromethyl)-5H,6H,7H-pyrrolo[3,4-d]pyrimidine-6-carbonyl]furo[2,3-d]pyrimidin-4-amine] | – | 100 to 1000
17 | Cc1oc2ncnc(NC3(C)CC3)c2c1C(=O)N1Cc2cnc(-c3ccc(F)cc3)nc2C1 [Example 37, 5-[2-(4-Fluorophenyl)-5H,6H,7H-pyrrolo[3,4-d]pyrimidine-6-carbonyl]-6-methyl-N-(1-methylcyclopropyl)furo[2,3-d]pyrimidin-4-amine] | – | 100 to 1000
18 | Cc1oc2ncnc(NC3(C)CC3)c2c1C(=O)N1CC(c2ncc(C(F)(F)F)cc2F)C1 [Example 38, 5-{3-[3-Fluoro-5-(trifluoromethyl)pyridin-2-yl]azetidine-1-carbonyl}-6-methyl-N-(1-methylcyclopropyl)furo[2,3-d]pyrimidin-4-amine] | – | 10 to 100
19 | Cc1ncc2c(n1)CCN(C(=O)c1c(C)oc3ncnc(NC4(C)CC4)c13)C2 [Example 39, 6-Methyl-5-f{2-methyl-5H,6H,7H,8H-pyrido[4,3-d]pyrimidine-6-carbonyl}-N-(1-methylcyclopropyl)furo[2,3-d]pyrimidin-4-amine] | – | 10 to 100
20 | COc1nccc2c1CCN(C(=O)c1c(C)oc3ncnc(NC4(C)CC4)c13)C2 [Example 40, 5-(5-Methoxy-1,2,3,4-tetrahydro-2,6-naphthyridine-2-carbonyl)-6-methyl-N-(1-methylcyclopropyl)furo[2,3-d]pyrimidin-4-amine] | – | 10 to 100
21 | Cc1oc2ncnc(NC3(C)CC3)c2c1C(=O)N1CCc2nc(C(C)(C)C)ncc2C1 [Example 41, 5-{2-tert-Butyl-5H,6H,7H,8H-pyrido[4,3-d]pyrimidine-6-carbonyl}-6-methyl-N-(1-methylcyclopropyl)furo[2,3-d]pyrimidin-4-amine] | >8 | –
22 | Cc1oc2ncnc(NC3(C)CC3)c2c1C(=O)N1CCN(c2ccccn2)CC1 [Example 42, 6-Methyl-N-(1-methylcyclopropyl)-5-[4-(pyridin-2-yl)piperazine-1-carbonyl]furo[2,3-d]pyrimidin-4-amine] | >8 | –
23 | Cc1oc2ncnc(NC3(C)CC3)c2c1C(=O)N1CCN(c2ccc(F)cn2)CC1 [Example 43, 5-[4-(5-Fluoropyridin-2-yl)piperazine-1-carbonyl]-6-methyl-N-(1-methylcyclopropyl)furo[2,3-d]pyrimidin-4-amine] | >8 | –
24 | Cc1ccc(N2CCN(C(=O)c3c(C)oc4ncnc(NC5(C)CC5)c34)CC2)nc1 [Example 44, 6-Methyl-N-(1-methylcyclopropyl)-5-[4-(5-methylpyridin-2-yl)piperazine-1-carbonyl]furo[2,3-d]pyrimidin-4-amine] | >8 | –
25 | COc1ncc2c(n1)CCN(C(=O)c1c(C)oc3ncnc(NC4(C)CC4)c13)C2 [Example 45, 5-{2-Methoxy-5H,6H,7H,8H-pyrido[4,3-d]pyrimidine-6-carbonyl}-6-methyl-N-(1-methylcyclopropyl)furo[2,3-d]pyrimidin-4-amine] | – | 10 to 100
26 | Cc1oc2ncnc(NC3(C)CC3)c2c1C(=O)Nc1ccc(N2CCOCC2)cn1 [Example 46, 6-Methyl-4-[(1-methylcyclopropyl)amino]-N-[5-(morpholin-4-yl)pyridin-2-yl]furo[2,3-d]pyrimidine-5-carboxamide] | – | 100 to 1000
27 | Cc1oc2ncnc(NC3(C)CC3)c2c1C(=O)N1CCN(c2ccc(C#N)cc2)CC1 [Example 47, 4-(4-{6-Methyl-4-[(1-methylcyclopropyl)amino]furo[2,3-d]pyrimidine-5-carbonyl}piperazin-1-yl)benzonitrile] | >8 | –
28 | Cc1oc2ncnc(NC3(C)CC3)c2c1C(=O)NCc1ccc(F)cc1 [Example 48, N-[(4-Fluorophenyl)methyl]-6-methyl-4-[(1-methylcyclopropyl)amino]furo[2,3-d]pyrimidine-5-carboxamide] | – | 10 to 100
29 | Cc1oc2ncnc(NC3(C)CC3)c2c1C(=O)NCc1ccc(F)cn1 [Example 49, N-[(5-Fluoropyridin-2-yl)methyl]-6-methyl-4-[(1-methylcyclopropyl)amino]furo[2,3-d]pyrimidine-5-carboxamide] | – | 10 to 100
